SMILES strings stand for the structures. pIC50: −log10 of the molar value. A value given as a limit tells only on which side of the number the result lay.

This passage reports IC50 results from ChEMBL document CHEMBL1140618, “3D-QSAR and molecular docking studies on benzothiazole derivatives as Candida albicans N-myristoyltransferase inhibitors” (Eur J Med Chem, 2007).

For this assay, the target named is T1, Glycylpeptide N-tetradecanoyltransferase (Candida albicans (strain SC5314 / ATCC MYA-2876) (Yeast), UniProt P30418).
T1 sequence (P30418 whole entry): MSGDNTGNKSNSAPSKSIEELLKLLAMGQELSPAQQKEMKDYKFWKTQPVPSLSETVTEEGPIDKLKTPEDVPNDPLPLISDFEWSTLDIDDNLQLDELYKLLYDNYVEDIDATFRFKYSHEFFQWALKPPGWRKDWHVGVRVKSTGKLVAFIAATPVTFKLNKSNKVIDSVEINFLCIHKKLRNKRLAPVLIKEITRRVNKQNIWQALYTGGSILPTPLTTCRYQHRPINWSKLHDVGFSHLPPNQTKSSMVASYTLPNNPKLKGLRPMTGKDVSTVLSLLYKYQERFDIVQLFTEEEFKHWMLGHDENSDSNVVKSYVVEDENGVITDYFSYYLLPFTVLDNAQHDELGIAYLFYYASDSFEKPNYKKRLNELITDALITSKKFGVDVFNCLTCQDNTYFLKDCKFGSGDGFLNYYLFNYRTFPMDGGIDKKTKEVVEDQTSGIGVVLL
Kind of assay: Inhibition of Candida albicans N-myristoyltransferse.
For the compound `Cc1ccc(C(=O)c2oc3cccc(OCCCNCc4cccnc4)c3c2C)nc1`, the negative logarithm of the IC50 (pIC50) (as a rule, −log10 of the IC50, conventionally taken in molar units) was 9.41.
Compound `O=C(NCc1ccc(CNCc2ccc3ccccc3c2)cc1)c1ccc2nc(NC(=O)C3CCCCC3)sc2c1` showed a negative logarithm of the IC50 (pIC50) of less than 5.00.
To `O=C(Nc1nc2ccc(C(=O)N3CC(NCc4ccc5ccccc5c4)C3)cc2s1)C1CCCCC1` belongs 7.19.
Compound `O=C(Nc1nc2ccc(C(=O)N3CCC(NCc4ccc5ccccc5c4)C3)cc2s1)C1CCCCC1` (stereo unspecified) showed a pIC50 of 6.72.
As to `O=C(Nc1nc2ccc(C(=O)N3CCC(NCc4ccc5ccccc5c4)CC3)cc2s1)C1CCCCC1`, the negative-log IC50 (pIC50) is 6.30.
The compound `O=C(NCc1cccc(CNCc2ccc3ccccc3c2)c1)c1ccc2nc(NC(=O)C3CCCCC3)sc2c1` gave a negative-log IC50 (pIC50) of 5.72.
Compound `O=C(Nc1nc2ccc(C(=O)N3CCC(CNCc4ccc5ccccc5c4)CC3)cc2s1)C1CCCCC1` had a pIC50 of 7.59. This pIC50 is 1.87 log units higher than that of the compound before.
As for `O=C(Nc1nc2ccc(C(=O)N3CCCC(NCc4ccc5ccccc5c4)C3)cc2s1)C1CCCCC1` (stereo unspecified), the pIC50 was 6.68. Compared with the last compound, the pIC50 is 0.91 log units lower.
Compound `O=C(CNCc1ccc2ccccc2c1)Nc1ccc2nc(NC(=O)C3CCCCC3)sc2c1` had a pIC50 of 5.64.
Regarding `O=C(NCCNCc1ccc2ccccc2c1)c1ccc2ncsc2c1`, the pIC50 is less than 5.00.
Take `Nc1nc2ccc(C(=O)NCCNCc3ccc4ccccc4c3)cc2s1`: the pIC50 was less than 5.00.
In the case of `O=C(NCCNCc1ccc2ccccc2c1)c1ccc2nc(NCc3ccccc3)sc2c1` it was less than 5.00; in that of `O=C(NCCNCc1ccc2ccccc2c1)c1ccc2nc(NCc3ccccn3)sc2c1`, less than 5.00.
Consider `O=C(NCCNCc1ccc2ccccc2c1)c1ccc2nc(NCC3CCCCC3)sc2c1`, for which the pIC50 was less than 6.00.
The compound `CC(=O)Nc1nc2ccc(C(=O)NCCNCc3ccc4ccccc4c3)cc2s1` had a pIC50 of less than 5.00.
For the compound `CCC(=O)Nc1nc2ccc(C(=O)NCCNCc3ccc4ccccc4c3)cc2s1`, the pIC50 is 6.89.
The compound `CC(C)C(=O)Nc1nc2ccc(C(=O)NCCNCc3ccc4ccccc4c3)cc2s1` gave a pIC50 of 7.34.
In turn, `O=C(NCCNCc1ccc2ccccc2c1)c1ccc2nc(NC(=O)C3CCCC3)sc2c1` gave a pIC50 of 7.64. This pIC50 is 0.30 log units higher than that of the compound before.
In the case of `O=C(NCCNCc1ccc2ccccc2c1)c1ccc2nc(NC(=O)C3CCOCC3)sc2c1` it was 6.05; in that of `O=C(NCCNCc1ccc2ccccc2c1)c1ccc2nc(NC(=O)C3CCNCC3)sc2c1`, less than 5.00.
For the compound `O=C(NCCNCc1ccc2ccccc2c1)c1ccc2nc(NC(=O)c3ccccc3)sc2c1`, the pIC50 is 6.80.
To `O=C(NCCNCc1ccc2ccccc2c1)c1ccc2nc(NC(=O)c3ccccn3)sc2c1` belongs less than 5.00.
As to `O=C(NCCNCc1ccc2ccccc2c1)c1ccc2nc(NC(=O)c3cnccn3)sc2c1`, the negative logarithm of the IC50 (pIC50) was 6.14.
In the case of `O=C(NCCNCc1ccc2ccccc2c1)c1ccc2nc(NC(=O)C3CCCCC3)sc2c1`, the pIC50 is 7.47.
`O=C(NCCCNCc1ccc2ccccc2c1)c1ccc2nc(NC(=O)C3CCCCC3)sc2c1` gave a pIC50 of 6.96.
In turn, `O=C(NCCCCNCc1ccc2ccccc2c1)c1ccc2nc(NC(=O)C3CCCCC3)sc2c1` had a pIC50 of 7.13.
`O=C(NCCNCc1ccc2ccccc2c1)c1ccc2nc(NC(=O)c3ccc(Cl)cc3)sc2c1` showed a negative-log IC50 (pIC50) of less than 5.00.
Turning to `O=C(NCCNCc1ccc2ccccc2c1)c1ccc2nc(NC(=O)c3ccc(Cl)c(Cl)c3)sc2c1`, the negative logarithm of the IC50 (pIC50) is less than 5.00.
In the case of `O=C(NCCNCc1ccc2ccccc2c1)c1ccc2nc(NC(=O)c3ccc(C(F)(F)F)cc3)sc2c1` it was less than 5.00; in that of `COc1ccc(OC)c(C(=O)Nc2nc3ccc(C(=O)NCCNCc4ccc5ccccc5c4)cc3s2)c1`, 6.51.
Consider `O=C(CCNCc1ccc(-c2ccccc2)cc1)Nc1ccc2nc(NC(=O)C3CCCC3)sc2c1`, for which the negative-log IC50 (pIC50) was 6.80.
In turn, `O=C(Nc1nc2ccc(NC(=O)[C@@H]3CC[C@H](NCc4ccc5ccccc5c4)C3)cc2s1)C1CCCC1` showed a negative logarithm of the IC50 (pIC50) of 7.96.
`O=C(Nc1ccc2nc(NC(=O)C3CCCC3)sc2c1)C1CCCC(NCc2ccc(-c3ccccc3)cc2)C1` (stereo unspecified) had a negative-log IC50 (pIC50) of 6.89.
Consider `O=C(Nc1nc2ccc(NC(=O)[C@H]3CCC[C@@H](NCc4ccc5ccccc5c4)C3)cc2s1)C1CCCC1`, for which the pIC50 is 9.31.
As to `CC(C)C(=O)Nc1nc2ccc(NC(=O)C3CCCC(NCc4ccc5ccccc5c4)C3)cc2s1` (stereo unspecified), the pIC50 was 8.48.
`O=C(Nc1ccc2nc(NC(=O)C3CCC3)sc2c1)C1CCCC(NCc2ccc3ccccc3c2)C1` (stereo unspecified): the pIC50 was 8.64. The pIC50 values of the last two compounds are within 0.2 log units of each other.
Turning to `O=C(Nc1ccc2nc(NC(=O)C3CCCC3)sc2c1)C1CCC(NCc2ccc3ccccc3c2)CC1` (stereo unspecified), the pIC50 was 7.47.
Take `Cc1c(COc2ccc(F)c(F)c2F)oc2cccc(OCCCNCc3cccnc3)c12`: the negative-log IC50 (pIC50) is 8.24.
In turn, `O=C(NCCNCc1ccc2ccccc2c1)c1ccc2nc(NC(=O)c3cccnc3Cl)sc2c1` had a pIC50 of less than 5.00.
`O=C(CCCNCc1ccc2ccccc2c1)Nc1ccc2nc(NC(=O)C3CCCC3)sc2c1` showed a negative-log IC50 (pIC50) of 7.82.
In the case of `O=C(Nc1ccc2nc(NC(=O)C3CC3)sc2c1)C1CCCC(NCc2ccc3ccccc3c2)C1` (stereo unspecified), the pIC50 is 8.62.
`O=C(Nc1ccc2nc(NC(=O)C3CCCCC3)sc2c1)C1CCCC(NCc2ccc3ccccc3c2)C1` (stereo unspecified) had a negative-log IC50 (pIC50) of 8.09.
To `CC(C)(C)OC(=O)Nc1nc2ccc(C(=O)NCCNCc3ccc4ccccc4c3)cc2s1` belongs less than 5.00; to `O=C(NCCNCc1ccc2ccccc2c1)c1ccc2nc(NC(=O)C3CCC3)sc2c1`, 7.55.
In turn, `O=C(NCCCCCNCc1ccc2ccccc2c1)c1ccc2nc(NC(=O)C3CCCCC3)sc2c1` showed a negative logarithm of the IC50 (pIC50) of 6.52. This pIC50 is 1.03 log units lower than that of the compound before.
In the case of `CCOC(=O)c1oc2cccc(OCCCNC(C)(C)C)c2c1C`, the pIC50 is 5.77. This pIC50 is 0.75 log units lower than that of the compound before.
